{
  "source": "patent US12390409B2",
  "about": "(NeueRe, LLC, priority 2018, dated 2025)",
  "key": {"skin": {"test_system": "skin", "settings": "other case reports, positive patch test; cited from earlier work"}, "skin of volar forearm": {"test_system": "skin of volar forearm", "assay": "Dose-ranging study of ambroxol on TEWL, 99.9% DMSO, volar forearm", "format": "in vivo, human", "settings": "ambroxol concentrations much lower than 2.0 mM (20 micromolar to 2.0 mM tested) in 99.9% DMSO, 10 microliter, 1 hr and 10 hr post-application", "text": "Apart from these additional concentrations, conditions and the formulation (99.9% DMSO) were essentially the same as those described in Example 1, except in this experiment 10 microliter aliquots were spread and the skin region tested was on the volar forearm.\nThe data in FIG. 3 are presented as histograms, with only start points (at 1 hr post-application) and end-points (at 10 hr post application) shown. Two things are notable about this experiment. […] This may reflect the relative delicacy of volar forearm skin compared to skin of the upper thigh, such that the same treatment may be more or less harsh depending on the skin area treated. […] [Symbols: Open rectangles, skin TEWL measured at 1 hr post-application; hatched rectangles, skin TEWL measured at 10 hr post-application; dashed line, average TEWL value (7.8±1.1 g/m^2-hr) of untreated skin from areas adjacent to the treatment sites. All measurements were taken in quadruplicate (n=4) or quintuplicate (n=5). Shown for each value are the error bars (standard deviation of quadruplicate or quintuplicate measurements.]"}, "human (adult male) skin": {"test_system": "human (adult male) skin", "assay": "TEWL recovery after skin barrier disruption by 99.9% DMSO, upper thigh", "format": "in vivo", "settings": "2.0 mM ambroxol in 99.9% DMSO", "text": "Dimethyl sulfoxide (DMSO) is a well-known skin permeability enhancer that is thought to act by disrupting ceramide-containing lipid bilayers of the stratum corneum and thereby compromising the permeability barrier of the skin (Agner and Serup, Clin. Expt. Dermatology 14:214 [1989]; Notman et al Biophysical Journal 93:2056 [2007]). Among its many protective functions, this lipid barrier regulates transepidermal water loss (TEWL) and is vital for the prevention of skin dryness in mammals. Thus, it is accepted by researchers in the field, that measurements of TEWL can be used to directly assay the integrity of the skin permeability barrier (Fluhr et al Experimental Dermatology 15:483 [2006]).\nAll experiments were conducted in a narrow range of relative humidity (30-40%) and at stable room temperatures of 18-22° C.\nTransepidermal water loss (TEWL) measurements, in units of g/m^2-h, were taken at various time points after applying the solutions (at t=0) to the skin sites. TEWL values were assessed using a wireless closed-chamber system (VapoMeter, Delphin Technologies Ltd., Kuopio, Finland) that automatically calculates water evaporation rates over a small area (˜1.3 cm^2); each measurement took about 10 s (Fluhr et al Experimental Dermatology 15:483 [2006]). […] All time points were measured in duplicate or triplicate. […] The improvement in TEWL, a difference of 4-6 g/m^2-h between the two curves, then maintains itself over the remaining course of the experiment. […] Shown for each point are the error bars (standard deviation of duplicate or triplicate measurements); for some points the error bars are less visible because they were smaller than the diameter of the symbol representing that point.]"}, "human skin": {"test_system": "human skin", "assay": "TEWL recovery after disruption by 60:40 DMSO:water formulation, upper thigh", "format": "in vivo", "settings": "2.0 mM ambroxol in 60:40 (v/v) DMSO:water", "experimental": "60% DMSO has been reported to be the minimum concentration of DMSO needed to disrupt ceramide-containing lipid bilayers in skin (Notman et al Biophysical Journal 93:2056 [2007]).\nAll time points were measured in duplicate or triplicate.\nAlso like in the experiment shown in FIG. 1, there is an enduring improvement of approximately 5 g/m^2-h in the rate of water loss of the ambroxol-treated skin relative to skin treated with the DMSO:water formulation alone. […] Shown for each point are the error bars (standard deviation of duplicate or triplicate measurements); for some points the error bars are less visible because they were smaller than the diameter of the symbol representing that point.]"}},
  "data": [
    {"smiles": "Nc1c(Br)cc(Br)cc1CN[C@H]1CC[C@H](O)CC1", "note": "[ambroxol, trans-4-(2-amino-3,5-dibromobenzylamino) cyclohexanol]", "values": [
      {"measurement": "adverse skin reaction in case reports", "setting": "skin", "value": "systemic contact dermatitis"},
      {"measurement": "ameliorating the increase in TEWL caused by the DMSO insult", "setting": "skin of volar forearm", "value": "positive results"},
      {"measurement": "improvement in TEWL, difference between ambroxol and control (DMSO only) curves", "setting": "human (adult male) skin; 20 microliter on about 2 cm^2 upper thigh skin, maintained after the burst over the remaining course", "value": "4-6 g/m^2-h"},
      {"measurement": "period of the rapid burst of skin barrier healing", "setting": "human (adult male) skin; upper thigh", "value": "approximately 30 minutes"},
      {"measurement": "time post-application of sudden drop in TEWL", "setting": "human (adult male) skin; upper thigh", "value": "about 60 minutes"},
      {"measurement": "time of the burst of TEWL improvement", "setting": "human skin", "value": "in the first hour post-application"}
    ]}
  ]
}
